Measurements taken from PMC12344197 (Bioactive Materials, 2025).
Where a SMILES comes first, the peptide text is derived from it. The star is where a group is joined. Succinyl(20-O-(20S)-CPT) = CC[C@@]1(OC(=O)CCC(=O)*)C(=O)OCc2c1cc1n(c2=O)Cc2cc3ccccc3nc2-1; Biotin = O=C1N[C@H]2[C@H](CS[C@H]2CCCCC(=O)*)N1

Assays:
Zeta potential = type: physicochemical; conditions: 10 μM in PBS pH 7.4
4T1 cells = experiment: CCK-8 assay; type: cell-based; conditions: 20 μM, 4 h incubation, washed, n = 6; for cell viability, no laser: dark, further 24 h
Red blood cells (RBCs) = experiment: Hemolysis assay; type: cell-based, BALB/c mice; conditions: mouse RBC suspension in PBS, 2 h, OD540; n = 3

Compound	zeta potential (Zeta potential)	cell viability, + Laser (4T1 cells; 808 nm laser 5 min 1 W cm−2, further 24 h, absence of biotin) [%]	cell viability, no laser (4T1 cells)	hemolysis (Red blood cells (RBCs))
CN1C(=CC=C2CCCC(C=CC3=[N+](C)c4ccccc4C3(C)C)=C2Cl)C(C)(C)c2ccccc21.[Cl-] [free IR775, IR775]	+23.9 mV	38.3	above 80%	
CC[C@@]1(O)C(=O)OCc2c1cc1n(c2=O)Cc2cc3ccccc3nc2-1 [Free CPT, camptothecin]			49.3%	
CC[C@@]1(OC(=O)CCC(=O)NCCCC[C@H](NC(=O)[C@H](Cc2ccccc2)NC(=O)[C@@H](N)Cc2ccccc2)C(=O)N[C@@H](CCCCNC(=O)CCCC[C@@H]2SC[C@@H]3NC(=O)N[C@@H]32)C(=O)O)C(=O)OCc2c1cc1n(c2=O)Cc2cc3ccccc3nc2-1 [FFKK-CPT, Phe-Phe-Lys(CPT)-Lys(Biotin)] (H-FFK(Succinyl(20-O-(20S)-CPT))K(Biotin)-OH)				no significant hemolysis
